Measurements published in patent publication US11512203B2, “Water-soluble azo compound or salt thereof, ink and recording medium” (Nippon Kayaku Kabushiki Kaisha, priority 2016, dated 2022).

Test: Xenon light resistance test, ink of Example 18 (Table 58)
Format: physicochemical
Settings: for each glossy paper (Table 58)
Experimental: An ink of Example 18 was prepared as in Example 1 except that the compound represented by the above formula (200) was used instead of the compound represented by the above formula (101).
Ink-jet recording was performed with an ink-jet printer (Canon, Inc., Product name: PIXUS ip7230) to allow each of the inks from Example 18 and Comparative Examples 1, 2 above to be attached on the following glossy papers 1 to 4. Upon performing recording, image patterns were created so that the density can be obtained in a gradation of 6 levels: 100%, 85%, 70%, 55%, 40%, and 25% to obtain a half-tone recorded article. The resulting recorded article was used as a test piece to perform the following tests.
Glossy paper 1: Canon, Inc., Product name: Canon Photograph paper, platinum grade (PT-201)
Glossy paper 2: Seiko Epson Corporation, Product name: Photograph paper Crispia
Glossy paper 3: Brother Industries, Ltd., Product name: BP71G
Glossy paper 4: FUJIFILM Corporation, Product name: Gasai Photo-finishing Pro
When required, color measurements of a recorded image were performed using a colorimeter (Product name SpectroEye from X-rite, Inc.). Color measurements were performed under the conditions of a density standard of DIN NB, a wide viewing angle of 2 degrees, a light source of D65. […]

## O=S(=O)(O)CCCOc1cc(N=Nc2ccc(Cl)c(S(=O)(=O)O)c2)c(Cl)cc1Nc1nc(Nc2cc(Cl)c(N=Nc3ccc(Cl)c(S(=O)(=O)O)c3)cc2OCCCS(=O)(=O)O)nc(N2CCN(c3nc(Nc4cc(Cl)c(N=Nc5ccc(Cl)c(S(=O)(=O)O)c5)cc4OCCCS(=O)(=O)O)nc(Nc4cc(Cl)c(N=Nc5ccc(Cl)c(S(=O)(=O)O)c5)cc4OCCCS(=O)(=O)O)n3)CC2)n1 [Example 18]
  light resistance tests, results compared with Comparative Examples 1, 2: better results
